US9661854B2, “Molecules having pesticidal utility, and intermediates, compositions, and processes, related thereto” (Dow AgroSciences LLC, priority 2015, dated 2017)

What was measured:
[1] = tested on: Beet Armyworm (Spodoptera exigua, LAPHEG); test: Bioassay on Beet Armyworm (BAW), 128-well diet tray assay; type: in vivo; conditions: 168 h, 50 μg/cm^2 on artificial diet, second instar larvae, 25° C., five to seven days, average of eight wells, read-out: BAW % Control (or Mortality) rating
Protocol: (§1) Example A: Bioassays on Beet Armyworm (Spodoptera exigua, LAPHEG) (“BAW”) and Cabbage Looper (Trichoplusia ni, TRIPNI) (“CL”)
(§2) Certain molecules disclosed in this document were tested against BAW and CL using procedures described in the following examples. In the reporting of the results, the “BAW & CL Rating Table” was used (See Table Section).
Bioassays on BAW were conducted using a 128-well diet tray assay. One to five second instar BAW larvae were placed in each well (3 mL) of the diet tray that had been previously filled with 1 mL of artificial diet to which 50 μg/cm^2 of the test molecule (dissolved in 50 μL of 90:10 acetone-water mixture) had been applied (to each of eight wells) and then allowed to dry. Trays were covered with a clear self-adhesive cover, vented to allow gas exchange, and held at 25° C., 14:10 light-dark for five to seven days. Percent mortality was recorded for the larvae in each well; activity in the eight wells was then averaged. The results are indicated in the table entitled “Table ABC: Biological Results” (See Table Section).

[2] = tested on: Cabbage Looper (Trichoplusia ni, TRIPNI); test: Bioassay on Cabbage Looper (CL), 128-well diet tray assay; type: in vivo; conditions: 168 h, 50 μg/cm^2 on artificial diet, second instar larvae, 25° C., five to seven days, average of eight wells, read-out: CL % Control (or Mortality) rating
Protocol: as §1, §2
Bioassays on CL were conducted using a 128-well diet tray assay. One to five second instar CL larvae were placed in each well (3 mL) of the diet tray that had been previously filled with 1 mL of artificial diet to which 50 μg/cm^2 of the test molecule (dissolved in 50 μL of 90:10 acetone-water mixture) had been applied (to each of eight wells) and then allowed to dry. Trays were covered with a clear self-adhesive cover, vented to allow gas exchange, and held at 25° C., 14:10 light-dark for five to seven days. Percent mortality was recorded for the larvae in each well; activity in the eight wells was then averaged. The results are indicated in the table entitled “Table ABC: Biological Results” (See Table Section).

Row | Compound | mortality at 50 µg/cm2 [1] | mortality at 50 µg/cm2 [2]
1 | Cc1ccc(Cl)c(N2C(=O)CS/C2=N\C(=O)Nc2ccc(/C=C/c3ncn(-c4ccc(OC(F)(F)F)cc4)n3)cc2)c1 [F44, 1-((Z)-3-(2-Chloro-5-methylphenyl)-4-oxothiazolidin-2-ylidene)-3-(4-((E)-2-(1-(4-(trifluoromethoxy)phenyl)-1H-1,2,4-triazol-3-yl)vinyl)phenyl)urea] | 50 to 100% | 50 to 100%
2 | CCCc1ccc(C)cc1N1C(=O)CS/C1=N\C(=O)Nc1ccc(/C=C/c2ncn(-c3ccc(OC(F)(F)F)cc3)n2)cc1 [F45, 1-((Z)-3-(5-Methyl-2-propylphenyl)-4-oxothiazolidin-2-ylidene)-3-(4-((E)-2-(1-(4-(trifluoromethoxy)phenyl)-1H-1,2,4-triazol-3-yl)vinyl)phenyl)urea] | 50 to 100% | 50 to 100%
3 | CCOc1ccc(C)cc1N1C(=O)CS/C1=N\C(=O)Nc1ccc(/C=C/c2ncn(-c3ccc(OC(F)(F)F)cc3)n2)cc1 [F46, 1-((Z)-3-(2-Ethoxy-5-methylphenyl)-4-oxothiazolidin-2-ylidene)-3-(4-((E)-2-(1-(4-(trifluoromethoxy)phenyl)-1H-1,2,4-triazol-3-yl)vinyl)phenyl)urea] | 50 to 100% | 50 to 100%
4 | Cc1cc(N2C(=O)CS/C2=N\C(=O)Nc2ccc(/C=C/c3ncn(-c4ccc(OC(F)(F)F)cc4)n3)cc2)c(C(C)C)cc1F [F47, 1-((Z)-3-(4-Fluoro-2-isopropyl-5-methylphenyl)-4-oxothiazolidin-2-ylidene)-3-(4-((E)-2-(1-(4-(trifluoromethoxy)phenyl)-1H-1,2,4-triazol-3-yl)vinyl)phenyl)urea] | 50 to 100% | 50 to 100%
5 | CCC(C)Oc1ccc(C)cc1N1C(=O)CS/C1=N\C(=O)Nc1ccc(/C=C/c2ncn(-c3ccc(OC(F)(F)F)cc3)n2)cc1 (stereo not shown) [F48, 1-((Z)-3-(2-(sec-Butoxy)-5-methylphenyl)-4-oxothiazolidin-2-ylidene)-3-(4-((E)-2-(1-(4-(trifluoromethoxy)phenyl)-1H-1,2,4-triazol-3-yl)vinyl)phenyl)urea] | 50 to 100% | 50 to 100%
6 | Cc1ccc(OC(C)C)c(N2C(=O)CS/C2=N\C(=O)Nc2ccc(/C=C/c3ncn(-c4ccc(OC(F)(F)F)cc4)n3)cc2)c1 [F49, 1-((Z)-3-(2-Isopropoxy-5-methylphenyl)-4-oxothiazolidin-2-ylidene)-3-(4-((E)-2-(1-(4-(trifluoromethoxy)phenyl)-1H-1,2,4-triazol-3-yl)vinyl)phenyl)urea] | 50 to 100% | 50 to 100%
7 | Cc1ccc(OC(F)(F)F)c(N2C(=O)CS/C2=N\C(=O)Nc2ccc(/C=C/c3ncn(-c4ccc(OC(F)(F)F)cc4)n3)cc2)c1 [F50, 1-((Z)-3-(5-Methyl-2-(trifluoromethoxy)phenyl)-4-oxothiazolidin-2-ylidene)-3-(4-((E)-2-(1-(4-(trifluoromethoxy)phenyl)-1H-1,2,4-triazol-3-yl)vinyl)phenyl)urea] | 50 to 100% | 50 to 100%
8 | Cc1ccc(OCC(F)(F)F)c(N2C(=O)CS/C2=N\C(=O)Nc2ccc(/C=C/c3ncn(-c4ccc(OC(F)(F)F)cc4)n3)cc2)c1 [F51, 1-((Z)-3-(5-Methyl-2-(2,2,2-trifluoroethoxy)phenyl)-4-oxothiazolidin-2-ylidene)-3-(4-((E)-2-(1-(4-(trifluoromethoxy)phenyl)-1H-1,2,4-triazol-3-yl)vinyl)phenyl)urea] | 50 to 100% | 50 to 100%
9 | Cc1ccc(OC(C)(C)C)c(N2C(=O)CS/C2=N\C(=O)Nc2ccc(/C=C/c3ncn(-c4ccc(OC(F)(F)F)cc4)n3)cc2)c1 [F52, 1-((Z)-3-(2-(tert-Butoxy)-5-methylphenyl)-4-oxothiazolidin-2-ylidene)-3-(4-((E)-2-(1-(4-(trifluoromethoxy)phenyl)-1H-1,2,4-triazol-3-yl)vinyl)phenyl)urea] | 50 to 100% | 50 to 100%
10 | COCc1ccc(C)cc1N1C(=O)CS/C1=N\C(=O)Nc1ccc(/C=C/c2ncn(-c3ccc(OC(F)(F)F)cc3)n2)cc1 [F53, 1-((Z)-3-(2-(Methoxymethyl)-5-methylphenyl)-4-oxothiazolidin-2-ylidene)-3-(4-((E)-2-(1-(4-(trifluoromethoxy)phenyl)-1H-1,2,4-triazol-3-yl)vinyl)phenyl)urea] | 50 to 100% | 50 to 100%
11 | COC(=O)c1cc(/C=C/c2ncn(-c3ccc(OC(F)(F)F)cc3)n2)ccc1NC(=O)/N=C1\SCC(=O)N1c1cc(C)ccc1C(C)C [F54, Methyl 2-(3-((Z)-3-(2-isopropyl-5-methylphenyl)-4-oxothiazolidin-2-ylidene)ureido)-5-((E)-2-(1-(4-(trifluoromethoxy)phenyl)-1H-1,2,4-triazol-3-yl)vinyl)benzoate] | 50 to 100% | 50 to 100%
12 | Cc1ccc(C(C)C)c(N2C(=O)CS/C2=N\C(=O)Nc2ccc(/C=C/c3ncn(-c4ccc(OC(F)(F)F)cc4)n3)cc2F)c1 [F55, 1-(2-Fluoro-4-((E)-2-(1-(4-(trifluoromethoxy)phenyl)-1H-1,2,4-triazol-3-yl)vinyl)phenyl)-3-((Z)-3-(2-isopropyl-5-methylphenyl)-4-oxothiazolidin-2-ylidene)urea] | 50 to 100% | 50 to 100%
13 | Cc1ccc(C(C)C)c(N2C(=O)CS/C2=N\C(=O)Nc2ccc(/C=C/c3ncn(-c4ccc(OC(F)(F)F)cc4)n3)cc2Cl)c1 [F56, 1-(2-chloro-4-((E)-2-(1-(4-(trifluoromethoxy)phenyl)-1H-1,2,4-triazol-3-yl)vinyl)phenyl)-3-((Z)-3-(2-isopropyl-5-methylphenyl)-4-oxothiazolidin-2-ylidene)urea] | 50 to 100% | 50 to 100%
14 | Cc1ccc(C(C)C)c(N2C(=O)CS/C2=N\C(=O)Nc2c(F)cc(/C=C/c3ncn(-c4ccc(OC(F)(F)F)cc4)n3)cc2F)c1 [F57, 1-(2,6-difluoro-4-((E)-2-(1-(4-(trifluoromethoxy)phenyl)-1H-1,2,4-triazol-3-yl)vinyl)phenyl)-3-((Z)-3-(2-isopropyl-5-methylphenyl)-4-oxothiazolidin-2-ylidene)urea] | 50 to 100% | 50 to 100%
15 | COc1cc(/C=C/c2ncn(-c3ccc(OC(F)(F)F)cc3)n2)ccc1NC(=O)/N=C1\SCC(=O)N1c1cc(C)ccc1C(C)C [F58, 1-((Z)-3-(2-isopropyl-5-methylphenyl)-4-oxothiazolidin-2-ylidene)-3-(2-methoxy-4-((E)-2-(1-(4-(trifluoromethoxy)phenyl)-1H-1,2,4-triazol-3-yl)vinyl)phenyl)urea] | 50 to 100% | 50 to 100%
16 | COCc1ccc(C)cc1N1C(=O)CS/C1=N\C(=O)Nc1ccc(/C=C/c2ncn(-c3ccc(OC(F)(F)F)cc3)n2)cc1F [F59, 1-(2-Fluoro-4-((E)-2-(1-(4-(trifluoromethoxy)phenyl)-1H-1,2,4-triazol-3-yl)vinyl)phenyl)-3-((Z)-3-(2-(methoxymethyl)-5-methylphenyl)-4-oxothiazolidin-2-ylidene)urea] | 50 to 100% | 50 to 100%
17 | Cc1ccc(C(C)C)c(N2C(=O)CS/C2=N\C(=O)Nc2ccc(/C=C/c3ncn(-c4ccc(OC(F)(F)F)cc4)n3)c(F)c2)c1 [F61, 1-(3-fluoro-4-((E)-2-(1-(4-(trifluoromethoxy)phenyl)-1H-1,2,4-triazol-3-yl)vinyl)phenyl)-3-((Z)-3-(2-isopropyl-5-methylphenyl)-4-oxothiazolidin-2-ylidene)urea] | 50 to 100% | 50 to 100%
